These results are taken from ChEMBL document CHEMBL3991601, “The target landscape of clinical kinase drugs” (Science, 2017).

The target in test [1] is Mitogen-activated protein kinase 3 (Homo sapiens, UniProt P27361).
The target in a further test is Adenosine kinase (Homo sapiens, UniProt P55263).
The target in test [2] is T1, Inhibitor of nuclear factor kappa-B kinase subunit epsilon (Homo sapiens, UniProt Q14164).
T1 sequence (Q14164 whole entry): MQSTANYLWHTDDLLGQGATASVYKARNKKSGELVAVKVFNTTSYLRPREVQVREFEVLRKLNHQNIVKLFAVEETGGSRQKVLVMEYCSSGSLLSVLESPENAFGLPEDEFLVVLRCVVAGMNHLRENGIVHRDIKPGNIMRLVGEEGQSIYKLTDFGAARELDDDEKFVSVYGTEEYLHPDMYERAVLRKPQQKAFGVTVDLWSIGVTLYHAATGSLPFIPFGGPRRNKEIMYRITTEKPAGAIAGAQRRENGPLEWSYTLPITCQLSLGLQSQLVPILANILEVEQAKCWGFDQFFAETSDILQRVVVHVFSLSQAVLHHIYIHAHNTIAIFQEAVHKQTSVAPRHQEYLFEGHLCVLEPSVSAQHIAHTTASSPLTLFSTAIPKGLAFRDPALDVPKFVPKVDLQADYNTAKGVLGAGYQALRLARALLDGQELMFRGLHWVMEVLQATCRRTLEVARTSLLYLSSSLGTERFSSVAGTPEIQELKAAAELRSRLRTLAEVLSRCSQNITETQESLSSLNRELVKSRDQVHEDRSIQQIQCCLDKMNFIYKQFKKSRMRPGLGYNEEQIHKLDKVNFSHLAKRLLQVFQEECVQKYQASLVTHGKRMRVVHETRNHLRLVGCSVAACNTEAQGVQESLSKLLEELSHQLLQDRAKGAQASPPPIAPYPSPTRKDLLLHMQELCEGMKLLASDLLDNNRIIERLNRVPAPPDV

Test [3] addresses cAMP-dependent protein kinase catalytic subunit alpha (Homo sapiens, UniProt P17612).
The target in test [4] is T2, DNA replication licensing factor MCM4 (Homo sapiens, UniProt P33991).
T2 sequence (P33991 whole entry): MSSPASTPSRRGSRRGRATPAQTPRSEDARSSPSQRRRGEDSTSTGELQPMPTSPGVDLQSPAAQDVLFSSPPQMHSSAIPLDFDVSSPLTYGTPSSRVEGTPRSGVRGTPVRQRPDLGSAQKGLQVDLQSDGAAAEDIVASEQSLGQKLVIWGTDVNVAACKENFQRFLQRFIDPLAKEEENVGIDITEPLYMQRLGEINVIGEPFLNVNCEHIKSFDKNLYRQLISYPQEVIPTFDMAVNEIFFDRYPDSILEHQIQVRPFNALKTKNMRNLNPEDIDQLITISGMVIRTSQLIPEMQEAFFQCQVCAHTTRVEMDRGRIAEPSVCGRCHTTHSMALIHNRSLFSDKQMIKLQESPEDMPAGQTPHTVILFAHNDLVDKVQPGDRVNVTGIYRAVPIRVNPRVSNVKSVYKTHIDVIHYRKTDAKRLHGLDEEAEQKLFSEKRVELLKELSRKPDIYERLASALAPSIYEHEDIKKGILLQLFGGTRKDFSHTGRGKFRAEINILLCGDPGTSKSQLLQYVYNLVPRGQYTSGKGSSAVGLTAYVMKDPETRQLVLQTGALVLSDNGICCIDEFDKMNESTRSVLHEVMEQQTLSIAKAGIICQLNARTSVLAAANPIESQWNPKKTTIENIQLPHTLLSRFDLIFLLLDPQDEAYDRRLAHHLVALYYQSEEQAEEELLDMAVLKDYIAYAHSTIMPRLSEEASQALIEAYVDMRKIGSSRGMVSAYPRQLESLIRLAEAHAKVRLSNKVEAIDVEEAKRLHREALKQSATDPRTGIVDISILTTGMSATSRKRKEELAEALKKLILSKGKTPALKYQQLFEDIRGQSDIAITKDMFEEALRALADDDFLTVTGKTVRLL

Test [5] concerns the target Tyrosine-protein kinase HCK (Homo sapiens, UniProt P08631).
In test [6] the target is High affinity nerve growth factor receptor (Homo sapiens, UniProt P04629).
A further test concerns the target GTP-binding protein 4 (Homo sapiens, UniProt Q9BZE4).
For test [7], the target named is Protein kinase C beta type (Homo sapiens, UniProt P05771).
The target of test [8] is T3, Serine/threonine-protein kinase TAO1 (Homo sapiens, UniProt Q7L7X3).
T3 sequence (Q7L7X3 whole entry): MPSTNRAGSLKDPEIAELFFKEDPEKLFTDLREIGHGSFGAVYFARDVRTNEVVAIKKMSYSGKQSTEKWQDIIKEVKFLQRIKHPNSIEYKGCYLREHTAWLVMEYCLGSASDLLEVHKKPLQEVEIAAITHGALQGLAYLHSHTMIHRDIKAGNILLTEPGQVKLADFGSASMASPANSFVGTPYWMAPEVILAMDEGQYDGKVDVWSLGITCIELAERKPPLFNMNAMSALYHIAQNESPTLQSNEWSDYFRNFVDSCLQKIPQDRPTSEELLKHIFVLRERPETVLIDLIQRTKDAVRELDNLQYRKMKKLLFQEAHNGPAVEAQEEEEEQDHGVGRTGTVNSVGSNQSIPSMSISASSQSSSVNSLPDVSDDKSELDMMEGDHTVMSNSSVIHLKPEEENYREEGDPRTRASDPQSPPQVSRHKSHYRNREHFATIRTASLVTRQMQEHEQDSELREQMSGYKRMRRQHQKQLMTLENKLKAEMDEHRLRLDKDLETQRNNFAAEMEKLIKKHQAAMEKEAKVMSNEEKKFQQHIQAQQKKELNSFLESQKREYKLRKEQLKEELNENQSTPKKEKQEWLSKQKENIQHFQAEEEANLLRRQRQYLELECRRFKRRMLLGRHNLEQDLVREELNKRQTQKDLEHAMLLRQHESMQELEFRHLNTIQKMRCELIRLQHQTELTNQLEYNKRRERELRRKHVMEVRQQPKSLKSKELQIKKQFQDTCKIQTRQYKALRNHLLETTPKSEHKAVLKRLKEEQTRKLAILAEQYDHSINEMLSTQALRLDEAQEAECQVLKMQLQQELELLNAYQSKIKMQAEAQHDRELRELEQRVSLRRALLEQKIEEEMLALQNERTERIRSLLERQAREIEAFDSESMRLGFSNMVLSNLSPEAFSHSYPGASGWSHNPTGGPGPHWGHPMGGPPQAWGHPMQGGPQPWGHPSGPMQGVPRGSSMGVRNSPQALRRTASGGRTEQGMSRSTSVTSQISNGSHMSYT

Test [9] addresses Cyclin-dependent kinase 7 (Homo sapiens, UniProt P50613).

The source made the active and inactive calls. For most assays here, no stated cut-off is given here; in the data, actives have a measured Kd and inactives only a lower limit.

Mitogen-activated protein kinase 3, sequence (P27361 whole entry): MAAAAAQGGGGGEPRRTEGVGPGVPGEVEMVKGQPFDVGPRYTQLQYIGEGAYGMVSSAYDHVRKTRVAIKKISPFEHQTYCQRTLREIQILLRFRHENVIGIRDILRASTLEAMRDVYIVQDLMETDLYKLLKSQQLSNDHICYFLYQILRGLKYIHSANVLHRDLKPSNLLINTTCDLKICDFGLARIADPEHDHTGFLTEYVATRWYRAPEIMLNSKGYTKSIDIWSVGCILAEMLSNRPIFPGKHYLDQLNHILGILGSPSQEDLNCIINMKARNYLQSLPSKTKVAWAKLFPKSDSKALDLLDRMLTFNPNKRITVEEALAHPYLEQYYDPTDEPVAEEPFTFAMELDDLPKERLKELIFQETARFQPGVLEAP
High affinity nerve growth factor receptor, sequence (P04629 whole entry): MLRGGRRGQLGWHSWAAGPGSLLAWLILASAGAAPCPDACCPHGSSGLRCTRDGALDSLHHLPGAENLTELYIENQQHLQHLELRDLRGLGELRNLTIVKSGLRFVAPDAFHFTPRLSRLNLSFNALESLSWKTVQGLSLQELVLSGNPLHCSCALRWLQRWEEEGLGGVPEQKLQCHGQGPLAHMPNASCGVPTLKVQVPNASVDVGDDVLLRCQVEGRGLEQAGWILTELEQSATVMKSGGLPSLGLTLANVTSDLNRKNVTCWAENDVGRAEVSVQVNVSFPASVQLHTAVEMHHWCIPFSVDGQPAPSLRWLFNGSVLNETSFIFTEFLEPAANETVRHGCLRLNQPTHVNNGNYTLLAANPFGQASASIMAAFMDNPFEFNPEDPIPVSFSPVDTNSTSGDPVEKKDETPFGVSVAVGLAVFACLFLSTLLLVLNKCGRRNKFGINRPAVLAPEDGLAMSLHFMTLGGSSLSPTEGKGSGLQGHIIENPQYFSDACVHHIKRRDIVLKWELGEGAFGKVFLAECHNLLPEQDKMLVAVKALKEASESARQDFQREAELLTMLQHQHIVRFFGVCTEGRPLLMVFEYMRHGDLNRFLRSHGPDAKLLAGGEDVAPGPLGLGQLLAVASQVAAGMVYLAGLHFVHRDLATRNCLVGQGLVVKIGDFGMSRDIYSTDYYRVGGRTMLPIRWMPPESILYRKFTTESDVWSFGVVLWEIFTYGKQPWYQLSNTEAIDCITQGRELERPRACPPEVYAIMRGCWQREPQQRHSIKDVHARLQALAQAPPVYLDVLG
Tyrosine-protein kinase HCK, sequence (P08631 whole entry): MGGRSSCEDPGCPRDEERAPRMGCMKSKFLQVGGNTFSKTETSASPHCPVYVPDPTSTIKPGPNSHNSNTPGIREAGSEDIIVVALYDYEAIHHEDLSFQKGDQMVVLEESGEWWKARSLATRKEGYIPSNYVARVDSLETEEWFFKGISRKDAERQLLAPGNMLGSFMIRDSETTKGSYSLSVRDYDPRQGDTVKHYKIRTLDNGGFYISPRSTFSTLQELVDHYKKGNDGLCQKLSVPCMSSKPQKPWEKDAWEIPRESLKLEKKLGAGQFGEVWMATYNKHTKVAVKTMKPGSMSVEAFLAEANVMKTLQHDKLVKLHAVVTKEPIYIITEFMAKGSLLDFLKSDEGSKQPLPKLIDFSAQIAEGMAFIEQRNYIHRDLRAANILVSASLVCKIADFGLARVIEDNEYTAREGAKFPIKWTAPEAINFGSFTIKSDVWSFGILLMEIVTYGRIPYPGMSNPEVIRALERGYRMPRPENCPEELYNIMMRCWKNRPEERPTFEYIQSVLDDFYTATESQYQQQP
Adenosine kinase, sequence (P55263 whole entry): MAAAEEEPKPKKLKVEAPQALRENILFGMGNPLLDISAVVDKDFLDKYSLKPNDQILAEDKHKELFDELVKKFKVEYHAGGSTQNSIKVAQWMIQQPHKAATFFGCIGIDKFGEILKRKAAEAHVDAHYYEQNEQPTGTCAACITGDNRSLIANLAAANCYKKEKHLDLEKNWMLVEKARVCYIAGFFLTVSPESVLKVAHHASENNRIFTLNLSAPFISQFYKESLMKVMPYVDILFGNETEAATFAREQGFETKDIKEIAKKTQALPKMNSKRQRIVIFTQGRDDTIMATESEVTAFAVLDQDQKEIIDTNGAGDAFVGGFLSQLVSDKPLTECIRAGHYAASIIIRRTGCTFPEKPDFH
Protein kinase C beta type, sequence (P05771 whole entry): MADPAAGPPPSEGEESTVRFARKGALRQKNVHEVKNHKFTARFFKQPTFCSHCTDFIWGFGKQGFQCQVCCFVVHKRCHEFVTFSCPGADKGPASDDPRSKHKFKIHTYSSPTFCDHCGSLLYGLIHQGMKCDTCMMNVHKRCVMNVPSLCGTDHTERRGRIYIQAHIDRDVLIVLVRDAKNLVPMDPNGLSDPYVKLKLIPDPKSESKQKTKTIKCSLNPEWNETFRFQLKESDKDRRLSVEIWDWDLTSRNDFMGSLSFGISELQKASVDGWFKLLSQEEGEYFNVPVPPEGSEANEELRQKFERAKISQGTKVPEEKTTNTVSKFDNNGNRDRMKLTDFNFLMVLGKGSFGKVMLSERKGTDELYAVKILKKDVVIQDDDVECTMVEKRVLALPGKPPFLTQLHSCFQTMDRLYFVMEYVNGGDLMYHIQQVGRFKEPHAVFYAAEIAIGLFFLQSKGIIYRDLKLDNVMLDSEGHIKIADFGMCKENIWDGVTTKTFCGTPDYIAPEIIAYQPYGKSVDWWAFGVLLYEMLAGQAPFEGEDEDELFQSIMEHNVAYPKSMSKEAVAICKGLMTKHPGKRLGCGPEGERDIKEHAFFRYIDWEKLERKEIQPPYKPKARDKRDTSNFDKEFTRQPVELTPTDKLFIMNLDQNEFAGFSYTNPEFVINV
Cyclin-dependent kinase 7, sequence (P50613 whole entry): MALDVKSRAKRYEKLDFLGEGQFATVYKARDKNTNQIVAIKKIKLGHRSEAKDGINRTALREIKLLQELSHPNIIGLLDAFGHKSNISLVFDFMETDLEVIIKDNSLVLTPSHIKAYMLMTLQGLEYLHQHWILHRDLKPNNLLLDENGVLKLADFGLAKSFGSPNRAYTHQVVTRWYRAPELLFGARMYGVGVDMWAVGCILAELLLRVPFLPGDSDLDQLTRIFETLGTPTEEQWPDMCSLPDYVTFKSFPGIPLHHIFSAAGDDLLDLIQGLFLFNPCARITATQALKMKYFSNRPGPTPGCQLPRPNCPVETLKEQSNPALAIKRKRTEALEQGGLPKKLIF

One may read the Kd as the equilibrium constant for the complex coming apart. `C=CC(=O)N1CCC[C@H](n2c(=O)n(-c3ccc(Oc4ccccc4)cc3)c3c(N)ncnc32)C1`: the Kd in [1] was > 30 µM (inactive); at Adenosine kinase, > 30 µM (inactive); in test [2], > 30 µM (inactive); in test [3], > 30 µM (inactive); in test [4], > 30 µM (inactive); in [5] it was 0.006 µM. Besides, the Kd (in test [6]; on GTP-binding protein 4; in [7]; in [8]; in test [9]) was > 30 µM (inactive) throughout.

With `Cc1nc2cc(-c3nn(C(C)C)c4ncnc(N)c34)ccc2o1`, the Kd (in test [1]; on Adenosine kinase; in test [2]; in test [3]; in [4]; in test [5]) was > 30 µM (inactive) throughout. Moreover, the Kd in test [6] is > 30 µM (inactive); on GTP-binding protein 4 it was > 30 µM (inactive); in test [7], > 30 µM (inactive); in test [8], 1.09 µM (active); in test [9] it was > 30 µM (inactive).

For `COCc1c(-c2ccc(NC(=O)Nc3cc(C(F)(F)F)ccc3F)c(F)c2)c2c(N)ncnn2c1CN1CCOCC1`, the Kd (in test [1]; at Adenosine kinase; in test [2]; in [3]; in [4]; in test [5]) was > 30 µM (inactive) each time. In addition, the Kd (in test [6]; at GTP-binding protein 4; in test [7]; in test [8]; in test [9]) was > 30 µM (inactive) each time.

`Cc1csc(-c2nnc(Nc3ccc(Oc4ncccc4-c4ccnc(N)n4)cc3)c3ccccc23)c1` [AMG-900]: the Kd (in test [1]; on Adenosine kinase; in test [2]; in [3]; in test [4]; in [5]) was > 30 µM (inactive) in each case. For the same compound, the Kd in test [6] was > 30 µM (inactive); on GTP-binding protein 4, > 30 µM (inactive); in test [7], > 30 µM (inactive); in [8], 1.9 µM (active); in test [9] it was > 30 µM (inactive).

On to `O=C(Nc1c[nH]nc1-c1nc2cc(CN3CCOCC3)ccc2[nH]1)NC1CC1` [AT-9283], for which the Kd in [1] is > 30 µM (inactive); on Adenosine kinase, > 30 µM (inactive); in test [2], 0.215 µM (active); in test [3] it was 3.19 µM (active); in test [4], > 30 µM (inactive); in test [5] it was 0.664 µM (active). In addition, the Kd in test [6] was > 30 µM (inactive); at GTP-binding protein 4 it was > 30 µM (inactive); in test [7] it was 3.38 µM (active); in test [8], 2.22 µM (active); in test [9], > 30 µM (inactive).

Regarding `C=CC(=O)Nc1cc2c(Nc3ccc(F)c(Cl)c3)ncnc2cc1C#CC(C)(C)N1CCN(C)CC1` [AV-412 FREE BASE], the Kd (in test [1]; at Adenosine kinase; in test [2]; in test [3]; in [4]; in [5]) was > 30 µM (inactive) in each case. Also, the Kd (in test [6]; at GTP-binding protein 4; in [7]; in test [8]; in [9]) was > 30 µM (inactive) each time.

`COc1cc([C@@H]2c3cc4c(cc3[C@H](O)[C@H]3COC(=O)[C@@H]23)OCO4)cc(OC)c1OC` [AXL-1717]: the Kd (in [1]; at Adenosine kinase; in [2]; in test [3]; in test [4]; in test [5]) was > 30 µM (inactive) in each case. In addition, the Kd (in test [6]; on GTP-binding protein 4; in test [7]; in [8]; in [9]) was > 30 µM (inactive) throughout.

On to `Cc1nc2cc(-n3ncc(C(=O)c4cc5ccccc5[nH]4)c3N)ccc2[nH]1` [FGFR INHIBITOR DEBIO 1347], for which the Kd in [1], in [2], in test [3], in test [4], in [5] and in test [6] was > 30 µM (inactive) throughout. Moreover, the Kd (on GTP-binding protein 4; in [7]; in test [8]; in test [9]) was > 30 µM (inactive) in each case.

On to `COc1ccc(S(=O)(=O)N(C(C)=O)c2ccccc2/C=C/c2cc[n+]([O-])cc2)cc1` [HMN-214], for which the Kd (in test [1]; on Adenosine kinase; in test [2]; in test [3]; in test [5]; in test [6]) was > 30 µM (inactive) in each case. The Kd (on GTP-binding protein 4; in [7]; in test [8]; in test [9]) was > 30 µM (inactive) each time.

In the case of `CC(C)c1cc(CNc2nc(Nc3cc(C4CC4)[nH]n3)cc(N3CCN(C)CC3)n2)on1` [XL-228], the Kd in test [1] is > 30 µM (inactive); in test [2] it was 1.39 µM (active); in test [3] it was > 30 µM (inactive); in [4], > 30 µM (inactive); in test [5], 6.39 µM (active); in test [6], 0.006 µM (active). The Kd was > 30 µM (inactive) at GTP-binding protein 4, > 30 µM (inactive) in [7], > 30 µM (inactive) in test [8] and 1.44 µM (active) in test [9].
